Test results as given in US20090318351A1, “METHOD OF TREATING ACUTE ST-ELEVATION MYOCARDIAL INFARCTION WITH A DELTA PKC ANTAGONIST” (priority 2008, published 2009).
“Also recorded” adds a separate entry of the source. Ends that are not written are not given here.

Experiments:
[1] = Plasma stability of capped peptides (KAI-9706 modified at amino and carboxy termini); settings: rat
Method: Plasma stability of capped peptides was compared. KAI-9706 was modified step-wise at its amino and carboxy termini. Plasma stability as measured by the percent of peptide composition remaining after 15 minutes.

[2] = Effect of D-peptides on plasma stability of KAI-9706; settings: All-L, All-D, scrambled or retro-inverso (R/I) carrier and cargo
Method: KAI-9706 was engineered with D-amino acids to determine their impact on peptide composition stability. Unmodified KAI-9706 was compared to a peptide composition with the same amino acid sequence, however the amino acids used were d-enantiomers instead of 1-amino acids. A retro-inverso version and a scrambled version of the peptide composition were also prepared.

[3] = 100 μg/ml, room temperature, LC/MS
Method: The effect of N-terminal acetylation and C-terminal amidation on compound stability in plasma and serum from rat and human was studied. The compounds were tested in the plasma/serum at a concentration of 100 μg/ml. The solutions were incubated at room temperature, precipitated with 5% TCA, and then the supernatant was neutralized with ammonium acetate. The peptides were then analyzed by LC/MS.

[4] = Stability of linear versus disulfide linked peptides in PBS solution; assay type: physicochemical; settings: conditions described in Example 15 (so in the source), FIGS. 8, 9 and 15
Method: The peptides were placed in solution at 0.1 mg/ml in PBS (pH 7.4) at 37° C.
Linear and disulfide bond linked versions of PKC-βI and PKC-βII peptide compositions were incubated under the conditions described in Example 15.
In particular, the Asn residues at position 7 of the β-I and β-II peptides and the Gln at position 2 of the β-II peptide. These linear peptide compositions were modified by substituting the Gly immediately C-terminal to the Asn with either Leu in the β-I peptide composition or Gly to Ile in the β-II peptide composition. The Gln at position 2 of the β-II peptide composition was also substituted with a Glu residue. The stability of the peptides was studied under the conditions described in Example 15.

rat heart = experiment: Rat heart model (Langendorff assay) of ischemic damage, CK release; settings: Langendorff in vitro post-ischemia model, 10 minutes perfusion, FIG. 16
Method: The ability of the capped composition to inhibit ischemic damage in a rat heat model (Langendorff Assay) was evaluated versus the uncapped form.

Compound	stability in human serum [3]	stability in solution of PKC-βI and PKC-βII peptide compositions [4]	further results
CC[C@H](C)[C@H](NC(=O)[C@@H]1CCCN1C(=O)[C@H](C)NC(=O)[C@H](CC(=O)O)NC(=O)[C@H](Cc1c[nH]cn1)NC(=O)[C@@H](N)CSSC[C@H](N)C(=O)N[C@@H](Cc1ccc(O)cc1)C(=O)NCC(=O)N[C@@H](CCCNC(=N)N)C(=O)N[C@@H](CCCCN)C(=O)N[C@@H](CCCCN)C(=O)N[C@@H](CCCNC(=N)N)C(=O)N[C@@H](CCCNC(=N)N)C(=O)N[C@@H](CCC(N)=O)C(=O)N[C@@H](CCCNC(=N)N)C(=O)N[C@@H](CCCNC(=N)N)C(=O)N[C@@H](CCCNC(=N)N)C(=O)O)C(=O)NCC(=O)N[C@@H](Cc1ccc(O)cc1)C(=O)N[C@@H](CC(=O)O)C(=O)O [KAI-9706]	–	–	remaining at 0.25 h [1]: 1%; % parent remaining at 15 mins [2]: 1%
EAVSLKPTGGYGRKKRRQRRR-NH2 [KP-1633]	increased stability	–	–
Ac-GKLFIMNLSGYGRKKRRQRRR-NH2 [modified linear β-I peptide composition]	–	served to stabilize; also recorded: stabilized	–
Ac-GEEVIRNISGYGRKKRRQRRR-NH2 [modified linear β-II peptide composition]	–	served to stabilize; also recorded: improved stability	–
KAI-1355: truncated version of KAI-9803 in which the carboxy terminal leucine was removed; cargo CSFNSYELGS	–	–	potency in protecting cardiac tissue from ischemia (creatine kinase release) (rat heart): potency comparable to that of the full length KAI-9803
Ac-EAVSLKPTGGYGRKKRRQRRR-NH2 [KP-1678]	increased stability	–	–
